Here are results for two compounds from patent publication US4340539A, “Derivatives of 6-bromo penicillanic acid” (priority 1980, dated 1982).

SMILES strings stand for the structures. Read-outs that look alike come from different tables or passages of the source. Where only a bound is given, the exact number is not on record here.

One series relates to B. thetaiotaomicron. The experiment in a line: Anti-Bacteroides activity (MIC, agar dilution), alone and in combination with BL-P2013. The class given is cell-based. The procedure:
*Minimum inhibitory concentration (MIC) determined by the agar dilution
method using 50X dilutions of 24 hour cultures as inocula dispensed by th
Steer's inoculator. Assay medium composed of Brucella Agar plus 5% laked
sheep blood and 10 mcg/ml vitamin K.

Another series relates to B. fragilis. Described as above. The class given is cell-based.
For a further series, the system named is Bacteroides species. The series is described as above. The class given is cell-based. The note with it: Bacteroides.
For series [1] the following is noted: man, cited from earlier work.

By MIC is commonly meant the lowest concentration found to suppress growth. Take `NCc1ccccc1CC(=O)N[C@@H]1C(=O)N2C(C(=O)O)=C(CSc3nnnn3CC(=O)O)CS[C@H]12` [Ceforanide]: the MIC was 125 µg/mL in the series with B. thetaiotaomicron (Bacteroides thetaiotaomicron, strain A22277, β-lactamase +, read-out: MIC); 125 µg/mL in the series on B. thetaiotaomicron (strain A22279, β-lactamase +); 32 µg/mL in the series with B. fragilis (strain A21875, β-lactamase +, read-out: MIC); 63 µg/mL in the series on B. fragilis (strain A21916, β-lactamase +, read-out: MIC); 32 µg/mL in the series with B. fragilis (strain A22021, β-lactamase +, read-out: MIC); 32 µg/mL with B. fragilis (strain A22053, β-lactamase +, read-out: MIC). For the same compound, the MIC is more than 125 µg/mL in the series with B. fragilis (strain A22533, β-lactamase +); more than 125 µg/mL in the series on B. fragilis (strain A22534, β-lactamase +); more than 125 µg/mL in the series on B. fragilis (strain A22535, β-lactamase +); 63 µg/mL in the series on B. fragilis (strain A22693, β-lactamase +, read-out: MIC); 125 µg/mL in the series on B. fragilis (strain A22694, β-lactamase +); more than 125 µg/mL with B. fragilis (strain A22695, β-lactamase +). Moreover, the MIC with B. fragilis (strain A22696, β-lactamase +) was more than 125 µg/mL; in the series on B. fragilis (strain A22697, β-lactamase +, read-out: MIC), 63 µg/mL; with B. fragilis (strain A22792, β-lactamase +), more than 125 µg/mL; in the series on B. fragilis (strain A22793, β-lactamase +, read-out: MIC) it was 32 µg/mL; with B. fragilis (strain A22794, β-lactamase +, read-out: MIC), 32 µg/mL; in the series with B. fragilis (strain A22795, β-lactamase +, read-out: MIC), 63 µg/mL. The MIC was 63 µg/mL with B. fragilis (strain A22797, β-lactamase +, read-out: MIC); 32 µg/mL in the series with B. fragilis (strain A22798, β-lactamase +, read-out: MIC); 125 µg/mL with Bacteroides species; 0.5 µg/mL in the series on Bacteroides species (strain A20927-1, β-lactamase -, read-out: MIC); 63 µg/mL with Bacteroides species (strain A20929, β-lactamase +, read-out: MIC); 63 µg/mL in the series on Bacteroides species (strain A20931, β-lactamase +, read-out: MIC). The MIC was 63 µg/mL in the series with Bacteroides species (strain A20933, β-lactamase +, read-out: MIC); 32 µg/mL with Bacteroides species (strain A20934, β-lactamase +, read-out: MIC); 2 µg/mL with Bacteroides species (strain A20935, β-lactamase -, read-out: MIC); 63 µg/mL in the series on Bacteroides species (strain A21954, β-lactamase +, read-out: MIC); 63 µg/mL with Bacteroides species (strain A21959, β-lactamase +, read-out: MIC).

For `CC1(C)S[C@@H]2[C@H](NC(=O)[C@H](N)c3ccccc3)C(=O)N2[C@H]1C(=O)OCOC(=O)[C@@H]1N2C(=O)C[C@H]2S(=O)(=O)C1(C)C` [Example 3], in series [1] (gastro-intestinal tract), the absorption entry is “excellently absorbed”. Besides, in series [1], the “blood and tissue levels of antibiotic and β-lactamase inhibitor” value is “high blood and tissue levels”; the hydrolysis after absorption entry was “hydrolyzed with simultaneous liberation of the active components”.
